Assay results: US9889113B2, “Method for reversing, preventing, delaying or stabilizing soft tissue calcification” (Panion & BF Biotech, Inc., priority 2006, dated 2018)

Tested on: patients with end stage renal disease (ESRD)
Experiment: Treatment-emergent adverse events in the dose-ranging study
Type: in vivo, human
Source text: Objectives: (1) To determine the effect of ferric citrate at doses of 2, 4 and 6 g daily, administered TID (three times a day), for 28 days on serum phosphate (PO4) levels in patients with end stage renal disease (ESRD). (2) To evaluate the safety of ferric citrate at doses of 2, 4, 6 g daily, administered TID, for 28 days in patients with ESRD.
Study Design: Randomized, double-blind, placebo-controlled, dose-ranging study to assess the effect of ferric citrate on serum phosphate concentrations in patients with ESRD on hemodialysis. Patients are assessed at Study Days 14 and 28 for effectiveness as measured by serum phosphate concentrations. Patients who received one or more doses of study medication are also assessed for safety.

Question: Which “Abdominal Pain (Preferred Term): # Event” value (2 g/day (N = 33)) does the source give for `O=C([O-])CC(O)(CC(=O)[O-])C(=O)[O-].[Fe+3]` [ferric citrate] here?
Answer: The value was 0.

Question: And the “Abdominal Pain (Preferred Term): (%)” value (2 g/day (N = 33))?
Answer: The value was “(0.0) %”.

Question: And the “Diarrhea (Preferred Term): # Event” value (2 g/day (N = 33))?
Answer: The value was 3.

Question: And the “Diarrhea (Preferred Term): (%)” value (2 g/day (N = 33))?
Answer: The value was “(9.1) %”.

Question: And the “GI Disorder, Definitely (relationship): # Event” value (2 g/day (N = 33))?
Answer: Its value is 0.

Question: What about the “GI Disorder, Definitely (relationship): (%)” value (from here on “GI Disorder, Definitely … (%)”) (2 g/day (N = 33)) of the same compound?
Answer: Its value is “(0.0) %”.

Question: And the “GI Disorder, Possibly (relationship): # Event” value (from here on “GI Disorder, Possibly … # Event”) (2 g/day (N = 33))?
Answer: The value was 3.

Question: What about the “GI Disorder, Possibly (relationship): (%)” value (“GI Disorder, Possibly … (%)” below) (2 g/day (N = 33)) of the same compound?
Answer: Its value is “(9.1) %”.

Question: And the “GI Disorder, Probably (relationship): # Event” value (shortened to “GI Disorder, Probably … # Event”) (2 g/day (N = 33))?
Answer: The value was 2.

Question: And the “GI Disorder, Probably (relationship): (%)” value (2 g/day (N = 33))?
Answer: The value was “(6.1) %”.

Question: What about the “GI Disorders (System Organ Class): # Event” value (2 g/day (N = 33)) of the same compound?
Answer: Its value is 8.

Question: And the “GI Disorders (System Organ Class): (%)” value (2 g/day (N = 33))?
Answer: The value was “(24.2) %”.

Question: What about the “GI Disorders, Mild (severity): # Event” value (2 g/day (N = 33)) of the same compound?
Answer: Its value is 6.

Question: What about the “GI Disorders, Mild (severity): (%)” value (2 g/day (N = 33)) of the same compound?
Answer: The value was “(18.2) %”.

Question: What about the “General Disorders (System Organ Class): # Event” value (2 g/day (N = 33)) of the same compound?
Answer: The value was 4.

Question: And the “General Disorders (System Organ Class): (%)” value (2 g/day (N = 33))?
Answer: The value was “(12.1) %”.

Question: And the “Infections and Infestations (System Organ Class): # Event” value (2 g/day (N = 33))?
Answer: Its value is 0.

Question: What about the “Infections and Infestations (System Organ Class): (%)” value (2 g/day (N = 33)) of the same compound?
Answer: The value was “(0.0) %”.

Question: What about the “Skin and SC Tissue Disorders (System Organ Class): # Event” value (2 g/day (N = 33)) of the same compound?
Answer: Its value is 3.

Question: What about the “Skin and SC Tissue Disorders (System Organ Class): (%)” value (2 g/day (N = 33)) of the same compound?
Answer: The value was “(9.1) %”.

Question: What about the “T#at1AE, Definitely (relationship): # Event” value (2 g/day (N = 33)) of the same compound?
Answer: Its value is 0.

Question: What about the “T#at1AE, Definitely (relationship): (%)” value (2 g/day (N = 33)) of the same compound?
Answer: The value was “(0.0) %”.

Question: And the “T#at1AE, Mild (severity): # Event” value (2 g/day (N = 33))?
Answer: The value was 13.

Question: What about the “T#at1AE, Mild (severity): (%)” value (2 g/day (N = 33)) of the same compound?
Answer: Its value is “(39.4) %”.

Question: What about the “T#at1AE, Moderate (severity): # Event” value (2 g/day (N = 33)) of the same compound?
Answer: Its value is 6.

Question: What about the “T#at1AE, Moderate (severity): (%)” value (2 g/day (N = 33)) of the same compound?
Answer: The value was “(18.2) %”.

Question: And the “T#at1AE, Possibly (relationship): # Event” value (2 g/day (N = 33))?
Answer: Its value is 5.

Question: What about the “T#at1AE, Possibly (relationship): (%)” value (2 g/day (N = 33)) of the same compound?
Answer: Its value is “(15.2) %”.

Question: And the “T#at1AE, Probably (relationship): # Event” value (2 g/day (N = 33))?
Answer: Its value is 2.

Question: What about the “T#at1AE, Probably (relationship): (%)” value (2 g/day (N = 33)) of the same compound?
Answer: Its value is “(6.1) %”.

Question: What about the “T#at1AE, Severe (severity): # Event” value (2 g/day (N = 33)) of the same compound?
Answer: The value was 0.

Question: What about the “T#at1AE, Severe (severity): (%)” value (2 g/day (N = 33)) of the same compound?
Answer: The value was “(0.0) %”.

Question: What about the “Total number of subjects with at least one adverse event (T#at1AE): # Event” value (2 g/day (N = 33)) of the same compound?
Answer: The value was 16.

Question: And the “Total number of subjects with at least one adverse event (T#at1AE): (%)” value (2 g/day (N = 33))?
Answer: The value was “(48.5) %”.

Question: And the “Abdominal Pain (Preferred Term): # Event” value (4 g/day (N = 34))?
Answer: Its value is 4.

Question: And the “Abdominal Pain (Preferred Term): (%)” value (4 g/day (N = 34))?
Answer: Its value is “(11.8) %”.

Question: And the “Diarrhea (Preferred Term): # Event” value (4 g/day (N = 34))?
Answer: The value was 1.

Question: And the “Diarrhea (Preferred Term): (%)” value (4 g/day (N = 34))?
Answer: Its value is “(2.9) %”.

Question: And the “GI Disorder, Definitely (relationship): # Event” value (4 g/day (N = 34))?
Answer: The value was 0.

Question: And the “GI Disorder, Definitely … (%)” value (4 g/day (N = 34))?
Answer: The value was “(0.0) %”.

Question: What about the “GI Disorder, Possibly … # Event” value (4 g/day (N = 34)) of the same compound?
Answer: Its value is 6.

Question: And the “GI Disorder, Possibly … (%)” value (4 g/day (N = 34))?
Answer: Its value is “(17.6) %”.

Question: And the “GI Disorder, Probably … # Event” value (4 g/day (N = 34))?
Answer: Its value is 2.

Question: And the “GI Disorder, Probably (relationship): (%)” value (4 g/day (N = 34))?
Answer: The value was “(5.9) %”.

Question: What about the “GI Disorders (System Organ Class): # Event” value (4 g/day (N = 34)) of the same compound?
Answer: Its value is 10.

Question: What about the “GI Disorders (System Organ Class): (%)” value (4 g/day (N = 34)) of the same compound?
Answer: Its value is “(29.4) %”.

Question: What about the “GI Disorders, Mild (severity): # Event” value (4 g/day (N = 34)) of the same compound?
Answer: Its value is 8.

Question: What about the “GI Disorders, Mild (severity): (%)” value (4 g/day (N = 34)) of the same compound?
Answer: Its value is “(23.5) %”.

Question: What about the “General Disorders (System Organ Class): # Event” value (4 g/day (N = 34)) of the same compound?
Answer: The value was 2.

Question: And the “General Disorders (System Organ Class): (%)” value (4 g/day (N = 34))?
Answer: Its value is “(5.9) %”.

Question: What about the “Infections and Infestations (System Organ Class): # Event” value (4 g/day (N = 34)) of the same compound?
Answer: Its value is 3.

Question: And the “Infections and Infestations (System Organ Class): (%)” value (4 g/day (N = 34))?
Answer: Its value is “(8.8) %”.

Question: What about the “Skin and SC Tissue Disorders (System Organ Class): # Event” value (4 g/day (N = 34)) of the same compound?
Answer: The value was 0.

Question: What about the “Skin and SC Tissue Disorders (System Organ Class): (%)” value (4 g/day (N = 34)) of the same compound?
Answer: The value was “(0.0) %”.

Question: And the “T#at1AE, Definitely (relationship): # Event” value (4 g/day (N = 34))?
Answer: The value was 0.

Question: What about the “T#at1AE, Definitely (relationship): (%)” value (4 g/day (N = 34)) of the same compound?
Answer: Its value is “(0.0) %”.

Question: And the “T#at1AE, Mild (severity): # Event” value (4 g/day (N = 34))?
Answer: Its value is 9.

Question: And the “T#at1AE, Mild (severity): (%)” value (4 g/day (N = 34))?
Answer: Its value is “(26.5) %”.

Question: What about the “T#at1AE, Moderate (severity): # Event” value (4 g/day (N = 34)) of the same compound?
Answer: The value was 3.

Question: What about the “T#at1AE, Moderate (severity): (%)” value (4 g/day (N = 34)) of the same compound?
Answer: The value was “(8.8) %”.

Question: And the “T#at1AE, Possibly (relationship): # Event” value (4 g/day (N = 34))?
Answer: Its value is 6.

Question: And the “T#at1AE, Possibly (relationship): (%)” value (4 g/day (N = 34))?
Answer: Its value is “(17.6) %”.

Question: And the “T#at1AE, Probably (relationship): # Event” value (4 g/day (N = 34))?
Answer: The value was 2.

Question: And the “T#at1AE, Probably (relationship): (%)” value (4 g/day (N = 34))?
Answer: The value was “(5.9) %”.

Question: What about the “T#at1AE, Severe (severity): # Event” value (4 g/day (N = 34)) of the same compound?
Answer: The value was 2.

Question: And the “T#at1AE, Severe (severity): (%)” value (4 g/day (N = 34))?
Answer: Its value is “(5.9) %”.

Question: And the “Total number of subjects with at least one adverse event (T#at1AE): # Event” value (4 g/day (N = 34))?
Answer: The value was 12.

Question: What about the “Total number of subjects with at least one adverse event (T#at1AE): (%)” value (4 g/day (N = 34)) of the same compound?
Answer: Its value is “(35.3) %”.

Question: And the “Abdominal Pain (Preferred Term): # Event” value (6 g/day (N = 33))?
Answer: Its value is 2.

Question: And the “Abdominal Pain (Preferred Term): (%)” value (6 g/day (N = 33))?
Answer: Its value is “(6.1) %”.

Question: What about the “Diarrhea (Preferred Term): # Event” value (6 g/day (N = 33)) of the same compound?
Answer: The value was 1.

Question: And the “Diarrhea (Preferred Term): (%)” value (6 g/day (N = 33))?
Answer: Its value is “(3.0) %”.

Question: And the “GI Disorder, Definitely (relationship): # Event” value (6 g/day (N = 33))?
Answer: The value was 0.

Question: What about the “GI Disorder, Definitely … (%)” value (6 g/day (N = 33)) of the same compound?
Answer: Its value is “(0.0) %”.

Question: What about the “GI Disorder, Possibly … # Event” value (6 g/day (N = 33)) of the same compound?
Answer: Its value is 1.

Question: And the “GI Disorder, Possibly … (%)” value (6 g/day (N = 33))?
Answer: Its value is “(3.0) %”.

Question: And the “GI Disorder, Probably … # Event” value (6 g/day (N = 33))?
Answer: Its value is 5.
